Source: ChEMBL document CHEMBL2321862, “Development and evaluation of novel phosphotyrosine mimetic inhibitors targeting the Src homology 2 domain of signaling lymphocytic activation molecule (SLAM) associated protein” (J Med Chem, 2013)
Activity calls are given as the source filed them. No rule for the calls is given here.

How the values were obtained:
[1] = molecular target: T1, SH2 domain-containing protein 1A (Homo sapiens) (UniProt O60880); experiment: Inhibition of recombinant 6-His-tagged SLAM associated protein SH2 domain (unknown origin) expressed in Escherichia coli BL21(DE3) binding to biotinyl-KKSLTIpYAQVQK-NH2 attached to NeutrAvidin-coated plates using p-nitrophenyl phosphate as substrate at 10 uM after 1 hr relative to control
T1 sequence (whole entry): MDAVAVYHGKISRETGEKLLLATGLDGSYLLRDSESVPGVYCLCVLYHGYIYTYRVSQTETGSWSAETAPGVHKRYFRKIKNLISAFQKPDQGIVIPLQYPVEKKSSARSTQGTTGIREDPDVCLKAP

[2] = molecular target: T1, SH2 domain-containing protein 1A (Homo sapiens); experiment: Inhibition of recombinant 6-His-tagged SLAM associated protein SH2 domain (unknown origin) expressed in Escherichia coli BL21(DE3) binding to biotinyl-KKSLTIpYAQVQK-NH2 attached to NeutrAvidin-coated plates using p-nitrophenyl phosphate as substrate at 100 uM after 1 hr

For `NC(=O)[C@H](CCC(=O)O)NC(=O)[C@H](Cc1ccc2c(c1)COP(=O)(O)O2)NC(=O)OCC1c2ccccc2-c2ccccc21`, the fold change (FC) [1] was 1.31 and the inhibition [2] was “Active”.

`NC(=O)C[C@H](NC(=O)[C@H](Cc1ccc2c(c1)COP(=O)(O)O2)NC(=O)OCC1c2ccccc2-c2ccccc21)C(N)=O` was tested, and the fold change (FC) [1] was 1.29 and the inhibition [2] was “Active”.

`C[C@@H](OC(C)(C)C)[C@H](NC(=O)[C@H](Cc1ccc2c(c1)COP(=O)(O)O2)NC(=O)OCC1c2ccccc2-c2ccccc21)C(N)=O` was tested, and the fold change (FC) [1] was 1.13 and the inhibition [2] was “Active”.

For `CC(C)(C)OC(=O)C[C@H](NC(=O)[C@H](Cc1ccc2c(c1)COP(=O)(O)O2)NC(=O)OCC1c2ccccc2-c2ccccc21)C(N)=O`, the fold change (FC) [1] was 1.24 and the inhibition [2] was “Active”.

In the case of `COC(=O)[C@H](Cc1ccc2c(c1)COP(=O)(O)O2)NC(=O)CNC(=O)OCC1c2ccccc2-c2ccccc21`, the fold change (FC) [1] is reported as 0.77 and the inhibition [2] is reported as “Active”.

For `NC(=O)[C@H](Cc1c[nH]c2ccccc12)NC(=O)[C@H](Cc1ccc2c(c1)COP(=O)(O)O2)NC(=O)OCC1c2ccccc2-c2ccccc21`, the fold change (FC) [1] was 1.36 and the inhibition [2] was “Active”.

For `COC(=O)[C@H](Cc1ccc2c(c1)COP(=O)(O)O2)NC(=O)[C@H](CCSC)NC(=O)OCC1c2ccccc2-c2ccccc21`, the fold change (FC) [1] was 0.85 and the inhibition [2] was “Active”.

For `NC(=O)[C@H](Cc1ccc(O)cc1)NC(=O)[C@H](Cc1ccc2c(c1)COP(=O)(O)O2)NC(=O)OCC1c2ccccc2-c2ccccc21`, the fold change (FC) [1] was 0.95 and the inhibition [2] was “Active”.

`COC(=O)[C@H](Cc1ccc2c(c1)COP(=O)(O)O2)NC(=O)[C@@H]1CCCN1C(=O)OCC1c2ccccc2-c2ccccc21` was tested, and the fold change (FC) [1] was 0.81 and the inhibition [2] was “Active”.

In the case of `CC[C@H](C)[C@H](NC(=O)[C@H](Cc1ccc2c(c1)COP(=O)(O)O2)NC(=O)OCC1c2ccccc2-c2ccccc21)C(N)=O`, the fold change (FC) [1] is reported as 1.05 and the inhibition [2] is reported as “Active”.

For `COC(=O)[C@H](Cc1ccc2c(c1)COP(=O)(O)O2)NC(=O)[C@H](CCCNC(=N)N)NC(=O)OCC1c2ccccc2-c2ccccc21`, the fold change (FC) [1] was 0.91 and the inhibition [2] was “Active”.

`COC(=O)[C@H](Cc1ccc2c(c1)COP(=O)(O)O2)NC(=O)[C@H](Cc1c[nH]cn1)NC(=O)OCC1c2ccccc2-c2ccccc21` was tested, and the fold change (FC) [1] was 0.89 and the inhibition [2] was “Active”.

For `COC(=O)[C@H](Cc1ccc2c(c1)COP(=O)(O)O2)NC(=O)[C@H](Cc1cn(C(c2ccccc2)(c2ccccc2)c2ccccc2)cn1)NC(=O)OCC1c2ccccc2-c2ccccc21`, the fold change (FC) [1] was 1.06 and the inhibition [2] was “Active”.

For `COC(=O)[C@H](Cc1ccc2c(c1)COP(=O)(O)O2)NC(=O)[C@H](CCCCNC(=O)OC(C)(C)C)NC(=O)OCC1c2ccccc2-c2ccccc21`, the fold change (FC) [1] was 0.85 and the inhibition [2] was “Active”.

In the case of `NC(=O)[C@H](CCC(=O)NC(c1ccccc1)(c1ccccc1)c1ccccc1)NC(=O)[C@H](Cc1ccc2c(c1)COP(=O)(O)O2)NC(=O)OCC1c2ccccc2-c2ccccc21`, the fold change (FC) [1] is reported as 1.07 and the inhibition [2] is reported as “Active”.

With `COC(=O)[C@H](Cc1ccc2c(c1)COP(=O)(O)O2)NC(=O)[C@H](CO)NC(=O)OCC1c2ccccc2-c2ccccc21` the fold change (FC) [1] was 1.13 and the inhibition [2] was “Active”.

For `COC(=O)[C@H](Cc1ccc2c(c1)COP(=O)(O)O2)NC(=O)[C@H](CCC(=O)O)NC(=O)OCC1c2ccccc2-c2ccccc21`, the fold change (FC) [1] was 0.95 and the inhibition [2] was “Active”.

In the case of `C[C@H](NC(=O)[C@H](Cc1ccc2c(c1)COP(=O)(O)O2)NC(=O)OCC1c2ccccc2-c2ccccc21)C(N)=O`, the fold change (FC) [1] is reported as 1.09 and the inhibition [2] is reported as “Active”.

For `CC(C)(C)OC(=O)n1cc(C[C@H](NC(=O)[C@H](Cc2ccc3c(c2)COP(=O)(O)O3)NC(=O)OCC2c3ccccc3-c3ccccc32)C(N)=O)c2ccccc21`, the fold change (FC) [1] was 1.33 and the inhibition [2] was “Active”.

With `NC(=O)CNC(=O)[C@H](Cc1ccc2c(c1)COP(=O)(O)O2)NC(=O)OCC1c2ccccc2-c2ccccc21` the fold change (FC) [1] was 1.07 and the inhibition [2] was “Active”.

For `COC(=O)[C@H](Cc1ccc2c(c1)COP(=O)(O)O2)NC(=O)[C@H](CC(=O)O)NC(=O)OCC1c2ccccc2-c2ccccc21`, the fold change (FC) [1] was 0.84 and the inhibition [2] was “Active”.

For `NC(=O)[C@H](CC(=O)NC(c1ccccc1)(c1ccccc1)c1ccccc1)NC(=O)[C@H](Cc1ccc2c(c1)COP(=O)(O)O2)NC(=O)OCC1c2ccccc2-c2ccccc21`, the fold change (FC) [1] was 1.03 and the inhibition [2] was “Active”.

For `CC(C)(C)Oc1ccc(C[C@H](NC(=O)[C@H](Cc2ccc3c(c2)COP(=O)(O)O3)NC(=O)OCC2c3ccccc3-c3ccccc32)C(N)=O)cc1`, the fold change (FC) [1] was 1.24 and the inhibition [2] was “Active”.

In the case of `NCCCC[C@H](NC(=O)[C@H](Cc1ccc2c(c1)COP(=O)(O)O2)NC(=O)OCC1c2ccccc2-c2ccccc21)C(N)=O`, the fold change (FC) [1] is reported as 1.22 and the inhibition [2] is reported as “Active”.

In the case of `COC(=O)[C@H](Cc1ccc2c(c1)COP(=O)(O)O2)NC(=O)[C@H](CCC(=O)NC(c1ccccc1)(c1ccccc1)c1ccccc1)NC(=O)OCC1c2ccccc2-c2ccccc21`, the fold change (FC) [1] is reported as 1.11 and the inhibition [2] is reported as “Active”.

With `COC(=O)[C@H](Cc1ccc2c(c1)COP(=O)(O)O2)NC(=O)[C@H](CC(C)C)NC(=O)OCC1c2ccccc2-c2ccccc21` the fold change (FC) [1] was 1.17 and the inhibition [2] was “Active”.

With `COC(=O)[C@H](Cc1ccc2c(c1)COP(=O)(O)O2)NC(=O)[C@H](COC(C)(C)C)NC(=O)OCC1c2ccccc2-c2ccccc21` the fold change (FC) [1] was 0.85 and the inhibition [2] was “Active”.

With `COC(=O)[C@H](Cc1ccc2c(c1)COP(=O)(O)O2)NC(=O)[C@H](CCC(=O)OC(C)(C)C)NC(=O)OCC1c2ccccc2-c2ccccc21` the fold change (FC) [1] was 1.1 and the inhibition [2] was “Active”.

`Cc1c(C)c(S(=O)(=O)NC(=N)NCCC[C@H](NC(=O)[C@H](Cc2ccc3c(c2)COP(=O)(O)O3)NC(=O)OCC2c3ccccc3-c3ccccc32)C(N)=O)c(C)c2c1OC(C)(C)C2` was tested, and the fold change (FC) [1] was 0.94 and the inhibition [2] was “Active”.

With `CC(C)C[C@H](NC(=O)[C@H](Cc1ccc2c(c1)COP(=O)(O)O2)NC(=O)OCC1c2ccccc2-c2ccccc21)C(N)=O` the fold change (FC) [1] was 0.99 and the inhibition [2] was “Active”.

`CSCC[C@H](NC(=O)[C@H](Cc1ccc2c(c1)COP(=O)(O)O2)NC(=O)OCC1c2ccccc2-c2ccccc21)C(N)=O` was tested, and the fold change (FC) [1] was 0.91 and the inhibition [2] was “Active”.

In the case of `COC(=O)[C@H](Cc1ccc2c(c1)COP(=O)(O)O2)NC(=O)[C@H](Cc1ccc2c(c1)COP(=O)(O)O2)NC(=O)OCC1c2ccccc2-c2ccccc21`, the fold change (FC) [1] is reported as 1.09 and the inhibition [2] is reported as “Active”.

`COC(=O)[C@H](Cc1ccc2c(c1)COP(=O)(O)O2)NC(=O)[C@H](Cc1ccc(OC(C)(C)C)cc1)NC(=O)OCC1c2ccccc2-c2ccccc21` was tested, and the fold change (FC) [1] was 0.96 and the inhibition [2] was “Active”.

For `CC(C)(C)OC[C@H](NC(=O)[C@H](Cc1ccc2c(c1)COP(=O)(O)O2)NC(=O)OCC1c2ccccc2-c2ccccc21)C(N)=O`, the fold change (FC) [1] was 1.27 and the inhibition [2] was “Active”.

`NC(=O)[C@@H]1CCCN1C(=O)[C@H](Cc1ccc2c(c1)COP(=O)(O)O2)NC(=O)OCC1c2ccccc2-c2ccccc21` was tested, and the fold change (FC) [1] was 1.05 and the inhibition [2] was “Active”.

`CC(C)[C@H](NC(=O)[C@H](Cc1ccc2c(c1)COP(=O)(O)O2)NC(=O)OCC1c2ccccc2-c2ccccc21)C(N)=O` was tested, and the fold change (FC) [1] was 1 and the inhibition [2] was “Active”.

In the case of `COC(=O)[C@H](Cc1ccc2c(c1)COP(=O)(O)O2)NC(=O)[C@H](Cc1ccc(O)cc1)NC(=O)OCC1c2ccccc2-c2ccccc21`, the fold change (FC) [1] is reported as 1.05 and the inhibition [2] is reported as “Active”.

`CC(C)(C)OC(=O)CC[C@H](NC(=O)[C@H](Cc1ccc2c(c1)COP(=O)(O)O2)NC(=O)OCC1c2ccccc2-c2ccccc21)C(N)=O` was tested, and the fold change (FC) [1] was 1.47 and the inhibition [2] was “Active”.

`COC(=O)[C@H](Cc1ccc2c(c1)COP(=O)(O)O2)NC(=O)[C@H](Cc1c[nH]c2ccccc12)NC(=O)OCC1c2ccccc2-c2ccccc21` was tested, and the fold change (FC) [1] was 0.94 and the inhibition [2] was “Active”.

With `COC(=O)[C@H](Cc1ccc2c(c1)COP(=O)(O)O2)NC(=O)[C@H](Cc1ccccc1)NC(=O)OCC1c2ccccc2-c2ccccc21` the fold change (FC) [1] was 0.84 and the inhibition [2] was “Active”.

With `N=C(N)NCCC[C@H](NC(=O)[C@H](Cc1ccc2c(c1)COP(=O)(O)O2)NC(=O)OCC1c2ccccc2-c2ccccc21)C(N)=O` the fold change (FC) [1] was 0.94 and the inhibition [2] was “Active”.

For `COC(=O)[C@H](Cc1ccc2c(c1)COP(=O)(O)O2)NC(=O)[C@H](CCCNC(=N)NS(=O)(=O)c1c(C)c(C)c2c(c1C)CC(C)(C)O2)NC(=O)OCC1c2ccccc2-c2ccccc21`, the fold change (FC) [1] was 0.75 and the inhibition [2] was “Active”.

`C[C@@H](O)[C@H](NC(=O)[C@H](Cc1ccc2c(c1)COP(=O)(O)O2)NC(=O)OCC1c2ccccc2-c2ccccc21)C(N)=O` was tested, and the fold change (FC) [1] was 1.22 and the inhibition [2] was “Active”.

In the case of `COC(=O)[C@H](Cc1ccc2c(c1)COP(=O)(O)O2)NC(=O)[C@@H](NC(=O)OCC1c2ccccc2-c2ccccc21)[C@@H](C)OC(C)(C)C`, the fold change (FC) [1] is reported as 0.85 and the inhibition [2] is reported as “Active”.

In the case of `COC(=O)[C@H](Cc1ccc2c(c1)COP(=O)(O)O2)NC(=O)[C@@H](NC(=O)OCC1c2ccccc2-c2ccccc21)C(C)C`, the fold change (FC) [1] is reported as 1.29 and the inhibition [2] is reported as “Active”.

`NC(=O)[C@H](CO)NC(=O)[C@H](Cc1ccc2c(c1)COP(=O)(O)O2)NC(=O)OCC1c2ccccc2-c2ccccc21` was tested, and the fold change (FC) [1] was 0.9 and the inhibition [2] was “Active”.

In the case of `COC(=O)[C@H](Cc1ccc2c(c1)COP(=O)(O)O2)NC(=O)[C@H](CCC(N)=O)NC(=O)OCC1c2ccccc2-c2ccccc21`, the fold change (FC) [1] is reported as 1.09 and the inhibition [2] is reported as “Active”.

With `COC(=O)[C@H](Cc1ccc2c(c1)COP(=O)(O)O2)NC(=O)[C@H](C)NC(=O)OCC1c2ccccc2-c2ccccc21` the fold change (FC) [1] was 0.89 and the inhibition [2] was “Active”.
